Source: PubChem BioAssay (NCI)
Where “and” joins values, the source holds several entries; their conditions need not be identical. Identical values can stand only once.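 How tested: cells in 96-well plates exposed to compound for 48 hours at five concentrations. GI50 is the concentration that inhibits growth by half. The concentration for full growth arrest is given as TGI.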

Columns and labels:
Test in all cases: DTP human tumour cell line panel, 48 h
786-0 renal = test system: 786-0 renal
HCT-116 colon = test system: HCT-116 colon
HOP-62 NSCLC = test system: HOP-62 NSCLC
K-562 leukemia = test system: K-562 leukemia
NCI-H226 lung = test system: NCI-H226 lung
NCI-H23 lung = test system: NCI-H23 lung
OVCAR-8 ovarian = test system: OVCAR-8 ovarian
SK-OV-3 ovarian = test system: SK-OV-3 ovarian
SNB-19 CNS = test system: SNB-19 CNS
TK-10 renal = test system: TK-10 renal

COC(=O)[C@@H](C)C[C@H](Cc1ccccc1)NC(=O)c1csc([C@@H](C[C@H](C(C)C)N(C)C(=O)[C@@H](NC(=O)[C@H]2CCCCN2C)C(C(F)(F)F)C(F)(F)F)OC(C)=O)n1
GI50 (786-0 renal): 0.0535 µM | TGI (786-0 renal): 3.53 µM | GI50 (HCT-116 colon): 0.057 µM | TGI (HCT-116 colon): > 16.7 µM | GI50 (HOP-62 NSCLC): 0.0651 µM | TGI (HOP-62 NSCLC): > 16.7 µM | GI50 (K-562 leukemia): 0.0124 µM | TGI (K-562 leukemia): > 16.7 µM | GI50 (NCI-H226 lung): 3.94 µM | TGI (NCI-H226 lung): > 16.7 µM | GI50 (NCI-H23 lung): 0.0624 µM | TGI (NCI-H23 lung): > 16.7 µM | GI50 (OVCAR-8 ovarian): 0.0927 µM | TGI (OVCAR-8 ovarian): > 16.7 µM | GI50 (SK-OV-3 ovarian): 0.07 µM | TGI (SK-OV-3 ovarian): > 16.7 µM | GI50 (SNB-19 CNS): 0.0658 µM | TGI (SNB-19 CNS): > 16.7 µM | GI50 (TK-10 renal): 4.6 µM | TGI (TK-10 renal): > 16.7 µM

C=CCO[C@H]1CC[C@@]2(C)C(CC[C@]3(C)C2CC=C2[C@@H]4[C@@H](C)C(C)CC[C@]4(C(=O)O)CCC23C)C1(C)C (some centres not stated)
TGI (786-0 renal): 30.6 µM | TGI (HCT-116 colon): 25.5 µM | TGI (HOP-62 NSCLC): 41 µM | TGI (K-562 leukemia): 28.6 µM | TGI (NCI-H226 lung): 39.6 µM | TGI (NCI-H23 lung): 28.9 µM | TGI (OVCAR-8 ovarian): 36.6 µM | TGI (SK-OV-3 ovarian): 31.7 µM | TGI (SNB-19 CNS): 32.2 µM | TGI (TK-10 renal): 32.2 µM

CC(CC(=O)Nc1ccc(NC(=O)CC(C)N=NC(N)=O)cc1)N=NC(N)=O (configuration not stated)
TGI (786-0 renal): > 100 µM | TGI (HCT-116 colon): > 100 µM | TGI (HOP-62 NSCLC): > 100 µM | TGI (K-562 leukemia): > 100 µM | TGI (NCI-H226 lung): > 100 µM | TGI (NCI-H23 lung): > 100 µM | TGI (OVCAR-8 ovarian): > 100 µM | TGI (SK-OV-3 ovarian): > 100 µM | TGI (SNB-19 CNS): > 100 µM | TGI (TK-10 renal): > 100 µM

COc1ccc(/C=C/C(=O)c2ccc(Nc3nc(Nc4ccc(F)cc4)nc(Nc4ccc(F)cc4)n3)cc2)cc1
GI50 (786-0 renal): 6.03 µM | TGI (786-0 renal): 26.9 µM | GI50 (HCT-116 colon): 4.82 µM | TGI (HCT-116 colon): 18.3 µM | GI50 (HOP-62 NSCLC): 13.1 µM | TGI (HOP-62 NSCLC): 30 µM | GI50 (K-562 leukemia): 4.07 µM | TGI (K-562 leukemia): > 100 µM | GI50 (NCI-H226 lung): 19.8 µM | TGI (NCI-H226 lung): 65.7 µM | GI50 (NCI-H23 lung): 14.4 µM | TGI (NCI-H23 lung): 32.5 µM | GI50 (OVCAR-8 ovarian): 8.49 µM | TGI (OVCAR-8 ovarian): 30.1 µM | GI50 (SK-OV-3 ovarian): 17.1 µM | TGI (SK-OV-3 ovarian): 88.4 µM | GI50 (SNB-19 CNS): 30.9 µM | TGI (SNB-19 CNS): > 100 µM | GI50 (TK-10 renal): 11.8 µM | TGI (TK-10 renal): 42.7 µM

CSc1nc2ccc(C)cc2cc1/C=C1/C=C(c2ccccc2)NC1=O
GI50 (786-0 renal): 2 µM | TGI (786-0 renal): 5.89 µM | GI50 (HCT-116 colon): 0.731 µM | TGI (HCT-116 colon): 4.07 µM | GI50 (HOP-62 NSCLC): 2.42 µM | TGI (HOP-62 NSCLC): 11.7 µM | GI50 (K-562 leukemia): 8.83 µM | TGI (K-562 leukemia): > 100 µM | GI50 (NCI-H226 lung): 7.3 µM | TGI (NCI-H226 lung): > 100 µM | GI50 (NCI-H23 lung): 10 µM | TGI (NCI-H23 lung): > 100 µM | GI50 (OVCAR-8 ovarian): 3.6 µM | TGI (OVCAR-8 ovarian): 23.2 µM | GI50 (SK-OV-3 ovarian): 4.83 µM | TGI (SK-OV-3 ovarian): > 100 µM | GI50 (SNB-19 CNS): 4.6 µM | TGI (SNB-19 CNS): 33.5 µM | GI50 (TK-10 renal): 2.63 µM | TGI (TK-10 renal): 8.46 µM

COc1ccc2c(c1)[nH]c1c3ccc(OC)cc3oc(=O)c21
TGI (786-0 renal): > 100 µM | TGI (HCT-116 colon): > 100 µM | TGI (HOP-62 NSCLC): > 100 µM | TGI (K-562 leukemia): > 100 µM | TGI (NCI-H226 lung): > 100 µM | TGI (NCI-H23 lung): > 100 µM | TGI (OVCAR-8 ovarian): > 100 µM | TGI (SK-OV-3 ovarian): > 100 µM | TGI (SNB-19 CNS): > 100 µM | TGI (TK-10 renal): > 100 µM

Nc1ccn(C2CC3OCC3O2)c(=O)n1 (configuration not stated)
TGI (786-0 renal): > 100 µM | TGI (HCT-116 colon): > 100 µM | TGI (HOP-62 NSCLC): > 100 µM | TGI (K-562 leukemia): > 100 µM | TGI (NCI-H226 lung): > 100 µM | TGI (NCI-H23 lung): > 100 µM | TGI (OVCAR-8 ovarian): > 100 µM | TGI (SK-OV-3 ovarian): > 100 µM | TGI (SNB-19 CNS): > 100 µM | TGI (TK-10 renal): > 100 µM

COC(=O)Nc1nc2ccc(C(=O)c3cccs3)cc2[nH]1
GI50 (786-0 renal): 0.261 µM | TGI (786-0 renal): 29.8 µM and > 100 µM | GI50 (HCT-116 colon): 0.0732 µM | TGI (HCT-116 colon): 16.5 µM and 14.2 µM | GI50 (HOP-62 NSCLC): 1.11 µM | TGI (HOP-62 NSCLC): 32.8 µM and > 100 µM | TGI (K-562 leukemia): 42.5 µM | GI50 (NCI-H226 lung): 0.275 µM | TGI (NCI-H226 lung): 1.26 µM and 2.54 µM | GI50 (NCI-H23 lung): 0.277 µM | TGI (NCI-H23 lung): 0.602 µM | GI50 (OVCAR-8 ovarian): 0.487 µM | TGI (OVCAR-8 ovarian): 15.7 µM and > 100 µM | GI50 (SK-OV-3 ovarian): 0.347 µM | GI50 (SNB-19 CNS): 0.359 µM | TGI (SNB-19 CNS): 42.5 µM and > 100 µM | TGI (TK-10 renal): 60.4 µM and > 100 µM

COC(=O)C(=O)C(C#N)c1c(Cl)cccc1Cl (configuration not stated)
TGI (786-0 renal): > 100 µM | TGI (HCT-116 colon): > 100 µM | TGI (HOP-62 NSCLC): > 100 µM | TGI (K-562 leukemia): > 100 µM | TGI (NCI-H226 lung): > 100 µM | TGI (NCI-H23 lung): > 100 µM | TGI (OVCAR-8 ovarian): > 100 µM | TGI (SK-OV-3 ovarian): > 100 µM | TGI (SNB-19 CNS): > 100 µM | TGI (TK-10 renal): > 100 µM

C/C(=N\Nc1n[nH]c(=S)n1N)c1c(O)cc(C)oc1=O
TGI (786-0 renal): > 100 µM | TGI (HCT-116 colon): > 100 µM | TGI (HOP-62 NSCLC): > 100 µM | TGI (K-562 leukemia): > 100 µM | TGI (NCI-H226 lung): > 100 µM | TGI (NCI-H23 lung): > 100 µM | TGI (OVCAR-8 ovarian): > 100 µM | TGI (SK-OV-3 ovarian): > 100 µM | TGI (SNB-19 CNS): > 100 µM | TGI (TK-10 renal): > 100 µM

CN1CCN(c2nc3cc(F)ccc3n3cccc23)CC1
TGI (786-0 renal): > 100 µM | TGI (HCT-116 colon): > 100 µM | TGI (HOP-62 NSCLC): > 100 µM | TGI (K-562 leukemia): > 100 µM | TGI (NCI-H226 lung): 54.1 µM | TGI (NCI-H23 lung): > 100 µM | TGI (OVCAR-8 ovarian): > 100 µM | TGI (SK-OV-3 ovarian): > 100 µM | TGI (SNB-19 CNS): > 100 µM | TGI (TK-10 renal): > 100 µM

N=C1C=C(N)C(=O)c2ccccc21
GI50 (786-0 renal): 0.202 µM | TGI (786-0 renal): 0.406 µM | GI50 (HCT-116 colon): 0.183 µM | TGI (HCT-116 colon): 0.451 µM | GI50 (HOP-62 NSCLC): 0.204 µM | TGI (HOP-62 NSCLC): 0.435 µM | GI50 (K-562 leukemia): 0.231 µM | TGI (K-562 leukemia): 0.556 µM | GI50 (NCI-H226 lung): 0.19 µM | TGI (NCI-H226 lung): 0.394 µM | GI50 (NCI-H23 lung): 0.219 µM | TGI (NCI-H23 lung): 0.61 µM | GI50 (OVCAR-8 ovarian): 0.248 µM | TGI (OVCAR-8 ovarian): 0.661 µM | GI50 (SK-OV-3 ovarian): 1.51 µM | TGI (SK-OV-3 ovarian): 2.86 µM | GI50 (SNB-19 CNS): 0.598 µM | TGI (SNB-19 CNS): 1.97 µM | GI50 (TK-10 renal): 0.599 µM | TGI (TK-10 renal): 1.7 µM

Cc1nc2sc(C(=O)Nc3ccccc3)c(N)c2cc1C(=O)c1ccccc1
GI50 (786-0 renal): 1.81 µM | TGI (786-0 renal): > 50 µM | GI50 (HCT-116 colon): 1.59 µM | TGI (HCT-116 colon): > 50 µM | GI50 (HOP-62 NSCLC): 3.33 µM | TGI (HOP-62 NSCLC): > 50 µM | GI50 (K-562 leukemia): 1.69 µM | TGI (K-562 leukemia): > 50 µM | GI50 (NCI-H226 lung): 16.9 µM | TGI (NCI-H226 lung): > 50 µM | GI50 (NCI-H23 lung): 3.99 µM | TGI (NCI-H23 lung): > 50 µM | GI50 (OVCAR-8 ovarian): 3.86 µM | TGI (OVCAR-8 ovarian): > 50 µM | GI50 (SK-OV-3 ovarian): 2.35 µM | TGI (SK-OV-3 ovarian): > 50 µM | GI50 (SNB-19 CNS): 2 µM | TGI (SNB-19 CNS): > 50 µM | GI50 (TK-10 renal): 3.09 µM | TGI (TK-10 renal): > 50 µM
